Experiments:
S. epidermidis SK9 = test: Checkerboard titration, FICI; format: cell-based, Staphylococcus epidermidis; settings: EDTA + ethanol checkerboard
Experimental: (§1) A fourth composition and solution included tetrasodium EDTA with ethanol or chlorhexidine HCl. This fourth composition and solution were created using checkerboard titration methods using micro broth dilution in 96-well microtiter plates. The concentrations of antimicrobials used were based on previously determined MIC values. Briefly, 200 μL of two-fold dilutions of tetrasodium EDTA and ethanol or chlorhexidine HCl were prepared in MH or MH II broth with standardized cell suspension. […] Microtiter plates were incubated at 37° C. for 24 h, and the results were analyzed. Each test was performed in duplicate and included a growth control without adding any antimicrobials.

MRSA ON184 = test: Checkerboard titration, FICI; format: cell-based, Staphylococcus aureus; settings: EDTA + ethanol checkerboard
Experimental: as §1

Candida albicans SK4b = test: Checkerboard titration, FICI; format: cell-based; settings: C. albicans SK4b; EDTA + ethanol checkerboard
Experimental: as §1

Escherichia coli ON29 = test: Checkerboard titration, FICI; format: cell-based; settings: E. coli ON29; EDTA + ethanol checkerboard
Experimental: as §1

Proteus mirabilis ON153 = test: Checkerboard titration, FICI; format: cell-based; settings: P. mirabilis ON153; EDTA + ethanol checkerboard
Experimental: as §1

[1] = tested on: Pseudomonas aeruginosa SK1; test: Checkerboard titration, FICI; format: cell-based; settings: P. aeruginosa SK1; EDTA + ethanol checkerboard
Experimental: as §1

Serratia marcescens SK2 = test: Checkerboard titration, FICI; format: cell-based; settings: S. marcescens SK2; EDTA + ethanol checkerboard
Experimental: as §1

[2] = tested on: Staphylococcus aureus ON89; test: Checkerboard titration, FICI; format: cell-based; settings: S. aureus ON89; EDTA + ethanol checkerboard
Experimental: as §1

[3] = tested on: Staphylococcus epidermidis ON170; test: Checkerboard titration, FICI; format: cell-based; settings: S. epidermidis ON170; EDTA + ethanol checkerboard
Experimental: as §1

[4] = tested on: Stenotrophomonas maltophilia ON17; test: Checkerboard titration, FICI; format: cell-based; settings: S. maltophilia ON17; EDTA + ethanol checkerboard
Experimental: as §1

E. coli SK2 = test: Checkerboard titration, FICI; format: cell-based, Escherichia coli; settings: EDTA + ethanol checkerboard
Experimental: as §1

C. albicans ON47 = test: Checkerboard titration, FICI; format: cell-based, Candida albicans; settings: EDTA + ethanol checkerboard
Experimental: as §1

[5] = tested on: 48-h-old biofilms of bacterial and fungal strains; test: MBEC assay, summary, 24 h exposure of 48-h-old biofilms; format: cell-based
Experimental: A biofilm cultivation cell composition was provided. This fifth composition was created using an MBEC Assay® biofilm inoculator, consisting of a polystyrene lid with 96 downward-protruding pegs and a corresponding base used to grow biofilms. A standardized inoculum was diluted in an appropriate biofilm growth medium to achieve a viable cell count of 1.5×10^6 CFU/mL of bacterial cells or 5×10^5 CFU/mL of fungal cells. Then, 150 μL of this inoculum was transferred into each appropriate well, and the peg lids were inserted into the microtiter plates. The plates were sealed with Parafilm and were incubated at optimum temperature for 48 h with slight rocking for bacteria and shaking at 200 rpm for fungal strains. After incubation, the peg lid was removed from the base and rinsed twice with sterile phosphate-buffered saline (PBS) for 2 min to remove loosely attached non-sessile cells. Before the antimicrobial challenge, the pegs in column 1 (n=8) were considered the biofilm growth control; these pegs were removed from the lids, placed into 200 μL of recovery medium, and analyzed for starting biofilm cell numbers as described below. […] After the antimicrobial challenge, the pegs were rinsed twice with sterile PBS for 2 min and placed into a new 96-well plate containing 200 μL of recovery medium. The recovery plates were sealed with Parafilm, and biofilm cells were dislodged from the pegs by sonication for 30 min with a Branson 3510 bath sonicator. The biofilm cells in the recovery medium were serially diluted, and a drop dilution assay was performed to enumerate the viable cells. MBEC values were determined as the minimum concentration of antimicrobials that yielded a viable cell count at or lower than the 125 CFU/mL detection limit.

[6] = tested on: 48-h old biofilms of bacterial and fungal test organisms; test: Rapid biofilm eradication, 2-h exposure; format: cell-based; settings: each agent alone at its MBEC
Experimental: Determining rapid biofilm eradication by tetrasodium EDTA, ethanol, and chlorhexidine HCl alone and in combination was performed. After biofilm formation, control pegs (n=6) were removed and analyzed to determine the starting biofilm cell numbers via the drop dilution method. The 48-h old biofilms on the pegs were exposed to different concentrations of test antimicrobials, dissolved in an appropriate growth medium, for two h to evaluate their efficacy alone and in combination. […] Following treatment, pegs were washed twice with sterile PBS, and the biofilm cells were dislodged into recovery medium and enumerated as described above.
The method for rapid biofilm eradication ability of test antimicrobials alone and in combination against 48-h-old biofilms within two h exposure time included (1) choosing different concentrations of test antimicrobials to assess their potency in eradicating preformed biofilms of study organisms within two h. Then (2) the quantitative recovery from biofilms following exposure to the antimicrobial solutions for bacterial strains (FIGS. 4A-4C) and fungal strains (FIG. 5) was evaluated.

Question: Which “Inhibitory concentration in combination” value (S. epidermidis SK9) does the source give for `CCO` [Ethanol, ethanol, reference compound] here?
Answer: 0.4 % w/v

Question: And the “Inhibitory concentration in combination” value (MRSA ON184)?
Answer: 0.4 % w/v

Question: And the “Inhibitory concentration in combination” value (Candida albicans SK4b)?
Answer: 1.6 % w/v

Question: And the “Inhibitory concentration in combination” value (Escherichia coli ON29)?
Answer: 3.125 % w/v

Question: What about the “Inhibitory concentration in combination” value (Proteus mirabilis ON153) of the same compound?
Answer: 1.6 % w/v

Question: And the “Inhibitory concentration in combination” value [1]?
Answer: 3.125 % w/v

Question: And the “Inhibitory concentration in combination” value (Serratia marcescens SK2)?
Answer: 3.125 % w/v

Question: And the “Inhibitory concentration in combination” value [2]?
Answer: 0.4 % w/v

Question: And the “Inhibitory concentration in combination” value [3]?
Answer: 0.4 % w/v

Question: What about the “Inhibitory concentration in combination” value [4] of the same compound?
Answer: 0.4 % w/v

Question: And the “Inhibitory concentration in combination” value (E. coli SK2)?
Answer: 6.25 % w/v

Question: What about the “Inhibitory concentration in combination” value (C. albicans ON47) of the same compound?
Answer: 0.4 % w/v

Question: And the “Concentration alone able to eradicate all established biofilms following 24 h of treatment” value [5]?
Answer: 5%

Question: What about the “Eradication of preformed biofilms after 2 h of exposure” value [6] of the same compound?
Answer: failed to eradicate
